In PMC12684298, “The Parkinson's Disease Drug Tolcapone and Analogues are Potent Glycomimetic Lectin Inhibitors of Pseudomonas aeruginosa LecA” (Angewandte Chemie (International Ed. in English), 2025):
Where “and” joins values, the source holds several entries; their conditions need not be identical. Equal entries are not always repeated. Where two headings read alike, the source gives them in different places.

Experiments:
[1] = target: T1, LecA (Pseudomonas aeruginosa, UniProt Q05097); test: biochemical; type: binding
T1 construct: made in house; host or cells: E. coli BL21 (DE3), plasmid pET25pa11
Procedure: Therefore, we focused our attention on commercially available nitro‐catechols. Prominent derivatives are inhibitors of the enzyme catechol‐O‐methyltransferase (COMT) and approved drugs for the treatment of Parkinson's disease. Four commercial COMT inhibitors were thus evaluated in a previously reported competitive binding assay based on fluorescence polarisation (FP, Table 1, Figure 1).^[ [32] ^]
The competitive binding assay was performed in analogy to Joachim et al.^[2] 10 µL of a solution containing LecA (40 µM) and sulfo-Cy5-Gal (20 nM, synthesis described in Kuhaudomlarp, Siebs et al.^[5]) in TBS/Ca buffer (20 mM Tris, 147 mM NaCl, 2.6 mM KCl at pH 7.4 supplemented with 1 mM CaCl2) were distributed in into wells of a black 384-well microtiter plate (Greiner Bio-One, Germany, cat no 781900). Then, 10 µL of serial dilutions of compounds (3 mM to 1.5 µM, dilution factor 0.5) in TBS/Ca with 40% DMSO were added in technical triplicates. Final concentrations after mixing were the following: 1.5 mM – 0.73 µM compound, 20 µM LecA, 10 nM sulfo-Cy5-Gal and 20% DMSO. The plate was sealed (EASYseal, Greiner Bio-One, cat no 676001), briefly centrifuged and incubated at room temperature in the dark under shaking conditions. Fluorescence intensity was measured after 1 h and 4 h using a PheraStar FS plate reader (BMG Labtech GmbH, Germany) with spectral filters for excitation at 590 nm and emission at 675 nm and polarization was calculated after blank values of 20 µM LecA in TBS/Ca buffer with 20% DMSO were subtracted from the test compounds. The data were analysed using the four-parameter variable slope model of the MARS Data Analysis software. The top and bottom plateau were assigned based on the control compound methyl α-d-galactoside and the data was reanalysed with these fixed values. If not mentioned otherwise, the experiment was repeated at least three times for each compound and the average and standard deviation are given. In case Triton X-100 was used it was added to the TBS/Ca buffer before the assay.

[2] = target: T1, LecA; test: biochemical; type: binding; details: ITC
Procedure: Isothermal titration calorimetry was performed on a MicroCal PEAQ-ITC (Malvern Panalytical) at 25 °C and 750 rpm stirring. The cell was filled with LecA (75 - 111 µM) in TBS/Ca buffer (20 mM Tris, 147 mM NaCl, 2.6 mM KCl at pH 7.4 supplemented with 1 mM CaCl2) with 20% DMSO and titrated with ligand (0.75 mM or 1.5 mM, 19 injections) in the same buffer. Data were analysed using the one binding site model in the MicroCal PEAQ-ITC analysis software (Malvern Panalytical). The first injection of each titration was excluded and the baseline subtracted for the final figures. Three titration per compound were performed and the average as well as standard deviation are given.

[3] = target: T1, LecA; test: Ligand-observed 19F NMR binding and competitive displacement with pNPGal; details: for 19F NMR peak intensity [%]: 50 µM ligand
Procedure: The presence of two fluorine atoms in the high affinity ligand 33 enabled another orthogonal LecA binding experiment (Figure 5c). In analogy to Denavit et al.,^[ [34] ^] ligand‐observed ^19F NMR spectra of 50 µM 33 were recorded in absence and in presence of LecA (100 µM). […] Importantly, the ligand's fluorine signal was restored when pNPGal was added as competitor molecule, indicating the specific and reversible catechol – LecA interaction.
RO0412970 was mixed with trifluoroacetic acid (TFA) as internal standard in non-deuterated TBS/Ca (20 mM Tris, 147 mM NaCl, 2.6 mM KCl at pH 7.4 supplemented with 1 mM CaCl2) and 10% DMSO-d6. From this mixture, one sample with LecA and one without LecA (as control) were prepared. […] Directly after the addition, spectra of both samples were recorded and the data was analysed with MestReNova 14.2.0. The spectra were referenced to TFA (-75.6 ppm) and the peak intensity of RO412970 compared to the internal standard TFA was calculated.

[4] = target: T1, LecA; test: Library screening using the FP competitive binding assay (three concentrations)
From the text: Next, we screened a library of catechols from F. Hoffmann‐La Roche, the developer of Tolcapone, in the competitive binding assay to establish a structure–activity relationship. To this end, two sets of compounds with a molecular cut‐off of 500 Da were chosen: a first set of 342 compounds contained derivatives of Tolcapone, while a second set of 3222 compounds comprised catechols covering a larger chemical space. […] Tests were run in a 384‐well‐plate format at three concentrations (first set at 125, 32, and 4 µM, second set at 100, 25, and 3 µM) in presence of 10% DMSO and 250 µM 2‐mercaptoethanol to prevent interference by a potential unspecific reactivity of electron‐rich catechols as established earlier.^[ [30] ^]
The screening followed the same assay by Joachim et al.^[2] as described above. Compounds in DMSO (1 µL with the appropriate concentration) were plated using a robot into black 384-well microtiter plates (Greiner Bio-One, Germany, cat no 781900) by the Roche compound handling facility at four replicates per concentration and compound. A mixture of LecA, sulfo-Cy5-Gal and 2-mercaptoethanol in TBS/Ca (20 mM Tris, 147 mM NaCl, 2.6 mM KCl at pH 7.4 supplemented with 1 mM CaCl2) with DMSO was added at HIPS. Final concentrations in both screening rounds were the following: 5 µM LecA, 250 µM 2-mercaptoethanol, 10 nM sulfo-Cy5-Gal and 10% DMSO. Final concentrations of the 342 compounds of the first screening round were 125 µM, 32 µM and 4 µM. The 3222 compounds of the second screening round were tested at final concentrations of 100 µM, 25 µM and 3 µM. The plate was sealed (EASYseal, Greiner Bio-One, cat no 676001), briefly centrifuged and incubated at room temperature in the dark under shaking conditions. Fluorescence intensities were measured after 1 h and 24 h using a PheraStar FS plate reader (BMG Labtech GmbH, Germany) with spectral filters for excitation at 590 nm and emission at 675 nm and polarization was calculated after blank values of 5 µM LecA in TBS/Ca buffer with 250 µM 2-mercaptoethanol and 10% DMSO were subtracted from the test compounds. The data were analysed using the MARS Data Analysis software. […] All stated values are the average including the standard deviation based on three replicates for 100 µM and four replicates in the case of compounds at 125 µM.

[5] = target: T1, LecA; details: previous hits; cited from earlier work
[6] = IC50, extended dose-response analysis, 20% DMSO, no 2-mercaptoethanol, three experiments
[7] = IC50 in presence of 0.01% Triton X-100, FP assay, 0.01% Triton X-100, one replicate
[8] = IC50 in presence of 0.057% Triton X-100, FP assay, 0.057% Triton X-100, one replicate
[9] = individual replicate (Repl. 1-3)
[10] = KD, 25 °C, 20% DMSO, average of three titrations
[11] = KD, individual replicate (Repl. 1-3)
[12] = read-out: Activity [%] (% inhibition relative to 500 µM pNPGal)

T1 sequence (Q05097 whole entry): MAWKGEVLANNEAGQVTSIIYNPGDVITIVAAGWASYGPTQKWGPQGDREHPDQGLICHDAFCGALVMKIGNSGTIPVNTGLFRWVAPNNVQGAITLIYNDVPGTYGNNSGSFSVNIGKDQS

Compound: O=C(c1cc(O)c(O)c([N+](=O)[O-])c1)c1c(F)cccc1F [compound 33]
- IC50 [1, 6]: 94 µM
- IC50 [1, 7]: 81 µM
- IC50 [1, 8]: 91 µM
- N (sites) ([2]; average of three titrations): 0.82 ± 0.03 and 0.820
- ΔG ([2]; average of three titrations): -6.6 ± 0.096 kcal/mol and -6.6 kcal/mol
- ΔH ([2]; average of three titrations): -5.83 ± 0.526 kcal/mol and -5.83 kcal/mol
- -TΔS [2, 9]: -1.36 kcal/mol and -0.789 kcal/mol and -0.17 kcal/mol
- N (sites) [2, 9]: 0.846 and 0.788 and 0.827
- ΔG [2, 9]: -6.67 kcal/mol and -6.62 kcal/mol and -6.5 kcal/mol
- ΔH [2, 9]: -5.31 kcal/mol and -5.83 kcal/mol and -6.33 kcal/mol
- Kd [2, 10]: 15 µM
- Kd [2, 11]: 13.2 µM and 14.4 µM and 17.3 µM
- 19F NMR peak intensity [%] ([3]; 100 µM LecA, after pNPGal (1 mM)): 79%
- 19F NMR peak intensity [%] ([3]; 100 µM LecA, before pNPGal): 1%
- 19F NMR peak intensity [%] ([3]; no LecA, after pNPGal (1 mM), defined as 100%): 100%
- 19F NMR peak intensity [%] ([3]; no LecA, before pNPGal, relative to TFA standard): 106%
- 19F NMR intensity ratio catechol/TFA ([3]; LecA, after pNPGal): 0.2160
- 19F NMR intensity ratio catechol/TFA ([3]; LecA, before pNPGal): 0.0036
- 19F NMR intensity ratio catechol/TFA ([3]; no LecA, after pNPGal): 0.2752
- 19F NMR intensity ratio catechol/TFA ([3]; no LecA, before pNPGal): 0.2923

Compound: Nc1cc(Cl)ccc1-c1nc(-c2cc(O)c(O)c([N+](=O)[O-])c2)cs1 [compound 17]
- inhibition at 100 µM [4, 12]: 15.2 ± 8.7%

Compound: CCCCOC(=O)c1cc(O)c(O)c([N+](=O)[O-])c1 [compound 21]
- inhibition at 100 µM [4, 12]: 22.9 ± 1.8%

Compound: Cc1ccc(C(=O)c2ccc(O)c(O)c2)cc1 [compound 6]
- inhibition at 100 µM [4, 12]: 13.8 ± 3.9%

Compound: COc1cc(C(=O)c2ccc(C)cc2)cc([N+](=O)[O-])c1OC [compound 5]
- Activity [%] (% inhibition relative to 500 µM pNPGal) ([4]; compound 125 µM (marked *), 10% DMSO, 250 µM 2-mercaptoethanol, four replicates): complete lack of activity
- inhibition at 125 µM [4, 12]: -5.3 ± 7.6%

Compound: O=C(NC12CC3CC(CC(C3)C1)C2)c1cc(O)c(O)c([N+](=O)[O-])c1 [compound 24]
- inhibition at 100 µM [4, 12]: 10 ± 3.6%

Compound: Cc1ccc(C(=O)c2cc(N)c(O)c(O)c2)cc1 [compound 8]
- inhibition at 100 µM [4, 12]: 7.9 ± 3.4%

Compound: Cn1nc(-c2cc(O)c(O)c([N+](=O)[O-])c2)cc1O [compound 18]
- inhibition at 100 µM [4, 12]: 1.9 ± 3.3%

Compound: O=C(c1cc(O)c(O)c([N+](=O)[O-])c1)C1CCCCC1 [compound 27]
- inhibition at 100 µM [4, 12]: 23.4 ± 3.6%

Compound: O=C(c1cc(O)c(O)c([N+](=O)[O-])c1)N1CCCCC1 [compound 25]
- inhibition at 100 µM [4, 12]: 5 ± 11.8%

Compound: Cc1ccc(C(=O)c2cc(O)c(O)c(C(=O)O)c2)cc1 [compound 9]
- inhibition at 100 µM [4, 12]: 2.1 ± 2.9%

Compound: O=C(NCc1ccccc1)c1cc(O)c(O)c([N+](=O)[O-])c1 [compound 23]
- inhibition at 100 µM [4, 12]: 26.6 ± 4.2%

Compound: Cc1ccc(C(=O)c2cc(O)c(O)c(-c3nc(C)no3)c2)cc1 [compound 13]
- IC50 [1, 6]: 346 ± 36 µM
- inhibition at 100 µM [4, 12]: 57.7 ± 3.8%

Compound: O=C(Nc1ccc(F)cc1)c1cc(O)c(O)c([N+](=O)[O-])c1 [compound 22]
- inhibition at 100 µM [4, 12]: 8.7 ± 3.3%

Compound: Cc1noc(-c2cc(O)c(O)c([N+](=O)[O-])c2)n1 [compound 16]
- inhibition at 100 µM [4, 12]: 9.4 ± 7.5%

Compound: CCOC(=O)c1cc(O)c(O)c([N+](=O)[O-])c1 [compound 20]
- inhibition at 100 µM [4, 12]: 14 ± 4.2%

Compound: O=[N+]([O-])c1ccc(O[C@@H]2O[C@H](CO)[C@H](O)[C@H](O)[C@H]2O)cc1 [pNPGal, para‐nitrophenyl β‐D‐galactoside, reference compound]
- Kd ([2]; 25 °C, 20% DMSO, average of three titrations, read-out: KD): 10.1 µM
- N (sites) ([2]; average of three titrations): 0.81 ± 0.09 and 0.810
- ΔG ([2]; average of three titrations): -6.84 ± 0.072 kcal/mol and -6.84 kcal/mol
- -TΔS [2, 9]: 5.83 kcal/mol and 4.64 kcal/mol and 5.02 kcal/mol
- N (sites) [2, 9]: 0.722 and 0.801 and 0.908
- ΔG [2, 9]: -28.4 kJ/mol (2×) and -28.9 kJ/mol
- ΔH [2, 9]: -12.6 kcal/mol and -11.5 kcal/mol and -11.8 kcal/mol
- Kd ([2]; individual replicate (Repl. 1-3), read-out: KD): 10.8 µM (2×) and 8.8 µM

Compound: CC(=O)Nc1cc(C(=O)c2ccc(C)cc2)cc(O)c1O [compound 10]
- inhibition at 100 µM [4, 12]: 20.1 ± 2.8%

Compound: CC(=O)c1cc(O)c(O)c([N+](=O)[O-])c1 [compound 19]
- inhibition at 100 µM [4, 12]: 31.5 ± 3.8%

Compound: O=C(c1ccccc1)c1ccc(O)c(O)c1 [3,4‐dihydroxybenzophenone]
- Kd [5]: 3460 ± 410 µM

Compound: Cc1ccc(C(=O)c2cc(O)c(O)c(C#N)c2)cc1 [compound 12]
- inhibition at 100 µM [4, 12]: 20.2 ± 4.8%

Compound: Cc1ccc(C(=O)c2cc([N+](=O)[O-])c(O)c(O)c2Cl)cc1 [compound 15]
- IC50 [1, 6]: 58 µM
- IC50 [1, 7]: 67 µM
- IC50 [1, 8]: 56 µM
- inhibition at 100 µM [4, 12]: 96.7 ± 4%
- N (sites) ([2]; average of three titrations): 0.92 ± 0.05 and 0.922
- ΔG ([2]; average of three titrations): -6.74 ± 0.14 kcal/mol and -6.74 kcal/mol
- ΔH ([2]; average of three titrations): -5.45 ± 0.359 kcal/mol and -5.45 kcal/mol
- -TΔS [2, 9]: -0.837 kcal/mol and -1.84 kcal/mol and -1.22 kcal/mol
- N (sites) [2, 9]: 0.947 and 0.957 and 0.862
- ΔG [2, 9]: -6.6 kcal/mol and -6.88 kcal/mol and -6.74 kcal/mol
- ΔH [2, 9]: -5.76 kcal/mol and -5.04 kcal/mol and -5.52 kcal/mol
- Kd [2, 10]: 12 µM
- Kd [2, 11]: 15.1 µM and 9.3 µM and 11.5 µM

Compound: Cc1ccc(C(=O)c2cc(O)c(O)c(-c3nnn[nH]3)c2)cc1 [compound 14]
- inhibition at 100 µM [4, 12]: 0.8 ± 8.7%

Compound: O=C(c1cc(O)c(O)c([N+](=O)[O-])c1)c1nc2ccccc2[nH]1 [compound 28]
- inhibition at 100 µM [4, 12]: 26.7 ± 3.6%
